Laboratory results as given in ChEMBL document CHEMBL1122192, “Nitro and amino derivatives of lucanthone as antitumor agents” (1982).

Columns and labels:
[1] = tested on: P388; assay: In vivo antitumor activity against P-388 lymphocytic leukemia at the dose of 100 mg/kg; assay type: functional, Mus musculus
[2] = tested on: P388; assay: In vivo antitumor activity against P-388 lymphocytic leukemia at the dose of 200 mg/kg; Toxic; assay type: functional, organism-based; set-up: dose 200 mg/kg; settings: Mus musculus
[3] = tested on: P388; assay: In vivo antitumor activity against P-388 lymphocytic leukemia at the dose of 50 mg/kg; assay type: functional, Mus musculus
[4] = tested on: P388; assay: In vivo antitumor activity against P-388 lymphocytic leukemia at the dose of 200 mg/kg; assay type: functional, Mus musculus
[5] = tested on: P388; assay: In vivo antitumor activity against P-388 lymphocytic leukemia at the dose of 12.5 mg/kg; assay type: functional, Mus musculus
[6] = tested on: P388; assay: In vivo antitumor activity against P-388 lymphocytic leukemia at the dose of 25 mg/kg; assay type: functional, Mus musculus

CN(C)CCNc1ccc(N)c2sc3ccccc3c(=O)c12
T/C [1]: 121
T/C [2]: Toxic
T/C [3]: 100

CCN(CC)CCNc1ccc(N)c2sc3ccccc3c(=O)c12
T/C [1]: 122
T/C [4]: 125
T/C [3]: 107

CCN(CC)CCNc1ccc(C)c2sc3ccc(N)cc3c(=O)c12
T/C [5]: 120
T/C [6]: 103
T/C [3]: 138

Nc1ccc(NCCNCCO)c2c(=O)c3ccccc3sc12
T/C [3]: 132

CCN(CC)CCNc1ccc(C)c2sc3c(N)cccc3c(=O)c12
T/C [1]: 113
T/C [4]: 123
T/C [3]: 100

CCN(CC)CCNc1ccc([N+](=O)[O-])c2sc3ccccc3c(=O)c12
T/C [1]: 145
T/C [4]: 178
T/C [3]: 142

CN(C)CCNc1ccc([N+](=O)[O-])c2sc3ccccc3c(=O)c12
T/C [1]: 103
T/C [5]: 114
T/C [6]: 135
T/C [3]: 143

O=c1c2ccccc2sc2c([N+](=O)[O-])ccc(NCCNCCO)c12
T/C [5]: 133
T/C [6]: 141
T/C [3]: 120
